Assay results published in patent US6525059B1, “Substituted pyrazoles as p38 kinase inhibitors” (G. D. Searle & Company, priority 1998, dated 2003).
pIC50: −log10 of the molar value.

Columns and labels:
[1] = test system: TNF-α; test: Rat assay: LPS-challenged rats, serum TNF-α by ELISA; type: in vivo; settings: 5 mpk oral gavage, 4 h before LPS challenge
Experimental: The efficacy of the novel compounds in blocking the production of TNF also was evaluated using a model based on rats challenged with LPS. Male Harlen Lewis rats [Sprague Dawley Co.] were used in this model. Each rat weighed approximately 300 g and was fasted overnight prior to testing. Compounds administration was typically by oral gavage (although intraperitoneal, subcutaneous and intravenous administration were also used in a few instances) 1 to 24 hours prior to the LPS challenge. Rats were administered 30 μg/kg LPS [salmonella typhosa, Sigma Co.] intravenously via the tail vein. Blood was collected via heart puncture 1 hour after the LPS challenge. Serum samples were stored at −20° C. until quantitative analysis of TNF-α by Enzyme Linked-Immuno-Sorbent Assay (“ELISA”) [Biosource]. Additional details of the assay are set forth in Perretti, M., et al., Br. J. Pharmacol. (1993), 110, 868-874, which is incorporated by reference in this application.
In vivo assessment of the ability of the compounds to inhibit LPS-stimulated TNF release in the rat is shown in the column identified as:
wherein in the dose is milligram per kilogram (mpk) administered by oral gavage and the predose time indicates the number of hours before LPS challenge when the compound is administered.

[2] = test system: TNF-α; test: LPS stimulation of TNF production by U937 cells; type: cell-based, human; settings: for inhibition at 1 µM: Homo sapiens, U-937, @ 1.0 uM, read-out: U937 Cell % inhib @ conc.; for U937 Cell % inhib @ conc.: @ 1.0 uM
Summary of the method: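 PMA-differentiated human U937 cells (20 ng/ml PMA, 24 h, then 24-48 h rest) at 2 million cells/ml, 0.1% DMSO final, stimulated with E. coli LPS (100 ng/ml final) for 4 h at 37° C. TNF-α in medium measured by ELISA; IC50 in μM.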

[3] = biological target: T1, human p38 kinase alpha (Homo sapiens, UniProt Q16539); test: p38 kinase in vitro assay, phosphorylation of biotinylated PHAS-I with gamma 32P-ATP; type: biochemical; settings: read-out: P38 alpha kinase IC50
T1 construct: The coding region of the human p38a cDNA was obtained by PCR-amplification from RNA isolated from the human monocyte cell line THP.1; GST (N); made in house; host or cells: E. coli DH10B
T1 sequence (Q16539 whole entry): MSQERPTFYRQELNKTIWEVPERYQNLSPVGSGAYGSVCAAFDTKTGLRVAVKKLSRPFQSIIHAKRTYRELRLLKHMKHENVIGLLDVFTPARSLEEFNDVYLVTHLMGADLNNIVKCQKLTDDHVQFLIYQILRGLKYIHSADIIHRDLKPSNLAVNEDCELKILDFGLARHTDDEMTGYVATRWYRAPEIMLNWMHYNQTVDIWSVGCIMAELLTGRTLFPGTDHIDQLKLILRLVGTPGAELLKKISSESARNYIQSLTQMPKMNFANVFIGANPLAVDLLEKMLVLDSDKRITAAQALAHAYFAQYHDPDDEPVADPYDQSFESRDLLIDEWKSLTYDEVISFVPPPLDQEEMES
Summary of the method: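 Radiometric filter-capture read-out: streptavidin plates trap biotin-PHAS-I labelled by activated (MKK6) human p38α from γ-32P-ATP. Buffer 25 mM HEPES pH 7.5, 10 mM magnesium acetate, 50 μM cold ATP; reactions 1 h or overnight at 30 °C; inhibitors 10-fold dilutions 100 to 0.001 μM, triplicates, 1% DMSO.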

Row | pIC50 [3] | pIC50 ([2]; TNF production, LPS-stimulated human U937 cells, read-out: U937 Cell IC50) | Compound | Rat LPS Model % Inhibition @ dose @ predose time [1] | inhibition at 1 µM [2] | U937 Cell % inhib @ conc. [2]
1 | 6.74 |  | C[C@@H](NC(=O)c1c(F)cc(F)cc1F)c1[nH]nc(-c2ccc(F)cc2)c1-c1ccncc1 [Example B-0507] |  | 75% | 
2 | 5.70 |  | C[C@@H](NC(=O)c1ccc(C(F)(F)F)cc1F)c1[nH]nc(-c2ccc(F)cc2)c1-c1ccncc1 [Example B-0508] |  | 48% | 
3 | 7.00 |  | C[C@@H](NC(=O)c1c(F)cccc1C(F)(F)F)c1[nH]nc(-c2ccc(F)cc2)c1-c1ccncc1 [Example B-0509] |  | 86% | 
4 | 8.15 |  | C[C@@H](NC(=O)c1ccc(F)cc1C(F)(F)F)c1[nH]nc(-c2ccc(F)cc2)c1-c1ccncc1 [Example B-0511] |  | 90% | 
5 | 6.14 |  | C[C@@H](NC(=O)c1cc(F)cc(C(F)(F)F)c1)c1[nH]nc(-c2ccc(F)cc2)c1-c1ccncc1 [Example B-0513] |  | 52% | 
6 | 6.85 |  | C[C@@H](NC(=O)c1ccccc1Cl)c1[nH]nc(-c2ccc(F)cc2)c1-c1ccncc1 [Example B-0514] |  | 87% | 
7 | 7.03 |  | C[C@@H](NC(=O)c1cccc(F)c1)c1[nH]nc(-c2ccc(F)cc2)c1-c1ccncc1 [Example B-0517] |  | 52% | 
8 | 7.37 |  | C[C@@H](NC(=O)c1c(Cl)cccc1Cl)c1[nH]nc(-c2ccc(F)cc2)c1-c1ccncc1 [Example B-0519] |  | 87% | 
9 | 6.40 |  | C[C@@H](NC(=O)c1cc(F)ccc1F)c1[nH]nc(-c2ccc(F)cc2)c1-c1ccncc1 [Example B-0520] |  | 67% | 
10 | 5.86 |  | C[C@@H](NC(=O)c1cc(F)c(F)cc1F)c1[nH]nc(-c2ccc(F)cc2)c1-c1ccncc1 [Example B-0521] |  | 52% | 
11 | 6.82 |  | C[C@@H](NC(=O)c1ccccc1F)c1[nH]nc(-c2ccc(F)cc2)c1-c1ccncc1 [Example B-0522] |  | 75% | 
12 | 6.72 |  | C[C@@H](NC(=O)c1c(F)cccc1F)c1[nH]nc(-c2ccc(F)cc2)c1-c1ccncc1 [Example B-0523] |  | 83% | 
13 | 7.51 |  | C[C@@H](NC(=O)c1ccccc1Br)c1[nH]nc(-c2ccc(F)cc2)c1-c1ccncc1 [Example B-0526] |  | 87% | 
14 | 5.96 |  | C[C@@H](NC(=O)c1ccc(C(F)(F)F)cc1)c1[nH]nc(-c2ccc(F)cc2)c1-c1ccncc1 [Example B-0527] |  | 63% | 
15 | 6.85 |  | C[C@@H](NC(=O)c1cccs1)c1[nH]nc(-c2ccc(F)cc2)c1-c1ccncc1 [Example B-0528] |  | 70% | 
16 | 8.70 |  | CC(NC(=O)Cc1cccs1)c1[nH]nc(-c2ccc(F)cc2)c1-c1ccncc1 (stereo not shown) [Example B-0600] |  |  | 28.0% @ 1.0 uM
17 | 5.20 |  | Cc1ccc(C(=O)NC(C)c2[nH]nc(-c3ccc(F)cc3)c2-c2ccncc2)cc1 (stereo not shown) [Example B-0671] |  |  | 36.0% @ 1.0 uM
18 | 4.57 |  | CC(NC(=O)c1cc(F)cc(C(F)(F)F)c1)c1[nH]nc(-c2ccc(F)cc2)c1-c1ccncc1 (stereo not shown) [Example B-0690] |  |  | 36.0% @ 1.0 uM
19 | 8.00 |  | CC(C)(C)C(=O)NC(Cc1ccccc1)c1[nH]nc(-c2ccc(F)cc2)c1-c1ccncc1 (stereo not shown) [Example B-0746] |  |  | 22.0% @ 1.0 uM
20 | 8.00 |  | CCCS(=O)(=O)NC(Cc1ccccc1)c1[nH]nc(-c2ccc(F)cc2)c1-c1ccncc1 (stereo not shown) [Example B-0760] |  |  | 13.0% @ 1.0 uM
21 | 6.52 | < 6.00 | CC(C)(C)C(=O)NC(Cc1ccccc1)c1[nH]nc(-c2ccc(F)cc2)c1-c1ccncc1 (stereo not shown) [Example B-0791] |  |  | 

Further lines, the compound ahead of its results:

Row | Compound | pIC50 [3] | pIC50 ([2]; TNF production, LPS-stimulated human U937 cells, read-out: U937 Cell IC50) | Rat LPS Model % Inhibition @ dose @ predose time [1] | inhibition at 1 µM [2] | U937 Cell % inhib @ conc. [2]
22 | 5-[2-(1,1-DIMETHYL)AMINOETHYL]-4-(4-PYRIDYL)-3-(4-FLUOROPHENYL)PYRAZOLE [Example C-114] |  |  | 39% @ 5 mpk @ −4h |  | 
23 | C[C@@H](NS(=O)(=O)c1ccccc1Cl)c1[nH]nc(-c2ccc(F)cc2)c1-c1ccncc1 [Example B-0463] | 7.28 |  |  | 95% | 
24 | C[C@@H](NS(=O)(=O)c1ccc(Cl)c(Cl)c1)c1[nH]nc(-c2ccc(F)cc2)c1-c1ccncc1 [Example B-0465] | 7.08 |  |  | 98% | 
25 | Cc1ccc(C)c(S(=O)(=O)N[C@H](C)c2[nH]nc(-c3ccc(F)cc3)c2-c2ccncc2)c1 [Example B-0468] | 7.51 |  |  | 93% | 
26 | Cc1ccccc1S(=O)(=O)N[C@H](C)c1[nH]nc(-c2ccc(F)cc2)c1-c1ccncc1 [Example B-0469] | 7.25 |  |  | 92% | 
27 | COc1ccc(C)cc1S(=O)(=O)N[C@H](C)c1[nH]nc(-c2ccc(F)cc2)c1-c1ccncc1 [Example B-0470] | 7.20 |  |  | 92% | 
28 | C[C@@H](NS(=O)(=O)c1cccc(C(F)(F)F)c1)c1[nH]nc(-c2ccc(F)cc2)c1-c1ccncc1 [Example B-0471] | 7.57 |  |  | 97% | 
29 | C[C@@H](NS(=O)(=O)[C@@]12CC[C@H](CC1=O)C2(C)C)c1[nH]nc(-c2ccc(F)cc2)c1-c1ccncc1 [Example B-0472] | 6.72 |  |  | 54% | 
30 | C[C@@H](NS(=O)(=O)c1cccc2nonc12)c1[nH]nc(-c2ccc(F)cc2)c1-c1ccncc1 [Example B-0477] | 5.83 |  |  | 96% | 
31 | COc1ccc(Cl)cc1S(=O)(=O)N[C@H](C)c1[nH]nc(-c2ccc(F)cc2)c1-c1ccncc1 [Example B-0478] | 7.47 |  |  | 87% | 
32 | C[C@@H](NS(=O)(=O)c1ccc(CNC(=O)c2ccccc2)s1)c1[nH]nc(-c2ccc(F)cc2)c1-c1ccncc1 [Example B-0480] | 6.92 |  |  | 88% | 
33 | Cc1c(C)c(S(=O)(=O)N[C@H](C)c2[nH]nc(-c3ccc(F)cc3)c2-c2ccncc2)c(C)c2c1OC(C)(C)CC2 [Example B-0482] | 6.01 |  |  | 68% | 
34 | C[C@@H](NS(=O)(=O)c1ccc(-c2ccccn2)s1)c1[nH]nc(-c2ccc(F)cc2)c1-c1ccncc1 [Example B-0483] | 6.24 |  |  | 68% | 
35 | C[C@@H](NS(=O)(=O)c1cn(C)cn1)c1[nH]nc(-c2ccc(F)cc2)c1-c1ccncc1 [Example B-0486] | 6.62 |  |  | 80% | 
36 | C[C@@H](NS(=O)(=O)c1ccc(S(=O)(=O)c2ccccc2)s1)c1[nH]nc(-c2ccc(F)cc2)c1-c1ccncc1 [Example B-0488] | 6.21 |  |  | 88% | 
37 | C[C@@H](NS(=O)(=O)c1ccccc1S(C)(=O)=O)c1[nH]nc(-c2ccc(F)cc2)c1-c1ccncc1 [Example B-0489] | 6.52 |  |  | 80% | 
38 | Cc1ccccc1C(=O)N[C@H](C)c1[nH]nc(-c2ccc(F)cc2)c1-c1ccncc1 [Example B-0492] | 7.16 |  |  | 42% | 
39 | C[C@@H](NC(=O)c1ccc(Cl)cc1)c1[nH]nc(-c2ccc(F)cc2)c1-c1ccncc1 [Example B-0493] | 6.52 |  |  | 36% | 
40 | C[C@@H](NC(=O)c1cccc(C(F)(F)F)c1)c1[nH]nc(-c2ccc(F)cc2)c1-c1ccncc1 [Example B-0495] | 6.92 |  |  | 25% | 
41 | C[C@@H](NC(=O)c1cc2ccccc2s1)c1[nH]nc(-c2ccc(F)cc2)c1-c1ccncc1 [Example B-0496] | 6.08 |  |  | 16% | 
42 | C[C@@H](NC(=O)c1cc(Cl)cc(Cl)c1)c1[nH]nc(-c2ccc(F)cc2)c1-c1ccncc1 [Example B-0498] | 6.48 |  |  | 11% | 
43 | C[C@@H](NC(=O)c1cc(F)cc(F)c1)c1[nH]nc(-c2ccc(F)cc2)c1-c1ccncc1 [Example B-0502] | 7.19 |  |  | 48% | 
44 | C[C@@H](NC(=O)c1c(F)ccc(F)c1F)c1[nH]nc(-c2ccc(F)cc2)c1-c1ccncc1 [Example B-0503] | 6.80 |  |  | 73% | 
45 | C[C@@H](NC(=O)c1cccc(Cl)c1Cl)c1[nH]nc(-c2ccc(F)cc2)c1-c1ccncc1 [Example B-0504] | 6.40 |  |  | 43% | 
46 | C[C@@H](NC(=O)c1cc(C(F)(F)F)ccc1F)c1[nH]nc(-c2ccc(F)cc2)c1-c1ccncc1 [Example B-0506] | 6.03 |  |  | 43% | 
